Test results published in US8536304B2, “Tumour-associated peptides that bind to MHC molecules” (Immatics Biotechnologies GmbH, priority 2002, dated 2013).

Experiments:
Type in all cases: cell-based, human
[1] = tested on: CD8+-T-lymphocytes; test: HLA-A*0201-tetramer staining of peripheral blood mononuclear cells from healthy individuals
Text: Peripheral blood mononuclear cells from healthy patients were stained with HLA-A*0201-tetramers which were folded with adipophilin-, keratin 18- or met-protooncogene (c-Met)-peptides: For generation of the tetramers, recombinant HLA-A*0201-molecules were folded in vitro with the peptides […] (SEQ ID No. 2, adipophilin), […] (SEQ ID No. 3, keratin 18) or […] (SEQ ID No. 1, met-protooncogene, c-Met), purified by means of gel filtration, biotinylated and mixed with streptavidin to link the monomers.
In FIG. 1, the results of double staining are shown in dotplots, whereby in the middle row the results of staining with keratin 18 is shown. Between 0.02 and 0.2% of the CD8^+-positive T-cells were specific for keratin 18.

[2] = tested on: 51Cr-labeled U 266; test: Lysis-inhibition assay with cold peptide-pulsed T2 inhibitor cells, target U 266; details: c-Met-peptide-induced CTL, inhibitor:target 20:1, FIGS. 4a and 4b
Procedure: (§1) To further verify the antigen-specificity and the MHC-restriction of the in-vitro-induced CTL, inhibition assays with non-^51Cr-labeled (“cold”) inhibitor cell lines were performed.
(§2) In doing so, the ability of peptide-pulsed cell lines was analyzed to inhibit the lysis of tumor cells (competition assay). For this purpose, an excess of inhibitor (that is an excess of unlabeled pulsed cells) was used. The ratio of inhibitor (peptide-pulsed cells) to target (tumor cells) was 20:1. When inhibitor cell lines were lysed, no ^51Cr was released, since the inhibitor cell lines were unlabeled.
(§3) Cell line T2 (HLA-A*02; TAP-deficient; see under 2.5.a) was used as inhibitor. Previous to the assay, this cell line T2 was pulsed with the relevant peptides (SEQ ID NOS:1 or 2) or an irrelevant control peptide (Survivin (=Sv), SEQ ID NO:80), respectively.
(§4) In FIGS. 4a and 4b, lysis of the ^51Cr-labeled cell lines U 266 and A 498 was tested without inhibitor cell line (see the curve with black filled boxes); lysis with inhibitor cell line T2, pulsed with an irrelevant peptide (Survivin; SEQ ID NO:80; negative control, curves with the filled triangles); and lyses with the inhibitor cell line T2 pulsed with the c-Met-peptide with SEQ ID NO:1 (curves with the empty rhombus).

[3] = tested on: 51Cr-labeled A 498; test: Lysis-inhibition assay with cold peptide-pulsed T2 inhibitor cells, target A 498
Procedure: as §1, §2, §3, §4
With these inhibition assays, the cells were incubated with 10 μg/ml antibody previous to seeding on the 96-well-plates for 30 min.

[4] = tested on: autologous DC of CLL patient; test: 51Cr-release assay, CTL of CLL patient against autologous peptide-pulsed DC; details: adipophilin-peptide-induced CTL of CLL patient; FIG. 6
Procedure: In the CTL-assays, tumor cells, peptide-pulsed cells of different cell lines and autologous DC were used as target cells. Peptide-pulsed cells were pulsed with 50 μg/ml peptide (SEQ ID No. 1 or SEQ ID No. 2) for 2 hours. All target cells were labeled with [^51Cr] sodium chromate in RP10 (RPMI 1640, supplemented with 10% heat inactivated calf serum and antibiotics) for 1 hour at 37° C. Subsequently, 10^4 cells/well were transferred to a 96-well round bottomed plate. Varying numbers of CTL were added to give a final volume of 200 μl and incubated for 4 hours at 37° C. At the end of the assays, supernatants (50 μl/well) were harvested and counted in a beta-plate counter. […] The spontaneous and maximal release were determined in the presence of either medium or 2% Triton X-100, respectively.
In a further experiment, CTL were generated from PBMNC of HLA-A*0201-positive patient with chronic lymphatic leukemia (CLL), which were specific for adipophilin-peptide with SEQ ID NO:2. The patient was in remission after treatment with fludarabine. Further, autologous CLL-cells and DC of this patient were used as ^51Cr-labeled targets in an assay, in which ^51Cr-release is mediated by the peptide-induced CTL.

Sequence	healthy individuals with a significant population of specific CD8+-T-lymphocytes [1]	lysis of 51Cr-labeled tumor cells in presence of unlabeled T2 inhibitor cells pulsed with the peptide [2]	inhibition of CTL-induced lysis of tumor cell line by T2 cells pulsed with the peptide ([3]; adipophilin-peptide-induced CTL, FIG. 4c)	lysis of 51Cr-labeled tumor cells in presence of unlabeled T2 inhibitor cells pulsed with the peptide ([3]; c-Met-peptide-induced CTL, inhibitor:target 20:1, FIGS. 4a and 4b)	lysis of autologous DC pulsed with the peptide [4]
ALLNIKVKL (listed as Homo sapiens) [SEQ ID No. 3, HLA-A*02 ligand, keratin 18 365-373]	four out of 22				
ELTLGEFLKL (listed as Homo sapiens) [Survivin, irrelevant control peptide, reference compound]		not able to inhibit	not able to inhibit	not able to inhibit	not lysed
